Assay results published in patent publication US12570709B2, “Self-assembling peptide amphiphiles displaying a transforming growth factor beta 1 (TGF-ß1) mimetic epitope” (Northwestern University, priority 2021, dated 2026).
Bridge positions count the residues as written; N and C are the ends. Ends that are not written are not given here. I, II: the chains in the order shown. * marks the point of attachment. Palmitoyl = CCCCCCCCCCCCCCCC(=O)*

Legend:
[1] = system: collagen II, aggrecan and F-actin in human chondrocytes; assay: Immunocytochemistry staining and fluorescence intensity analysis after three days; assay type: cell-based; conditions: three days in vitro
Procedure: For immunocytochemistry (ICC), 12-mm glass coverslips were coated with sterile filtered 0.01 mg/mL poly-D-lysine (Sigma-Aldrich) solution and incubated overnight at 37° C. The coverslips were washed three times with sterile water and air-dried for at least 30 minutes. Cells were seeded on coverslips at a density of approximately 3,000 cells/coverslip and cultured for 24 h. Cells were then treated with PA in solution for 3 days in vitro. Following treatment, cells were fixed in 4% paraformaldehyde for 15 minutes at room temperature.
(§1) Fixed samples were permeabilized and blocked in a solution of 0.1% (v/v) Triton X-100 and 1% normal horse serum (Invitrogen) for 2 hours at room temperature. Samples were incubated with primary antibodies overnight at 4° C. The following primary antibodies were used: rabbit anti-Sox9 (1:500, Abcam), mouse anti-Aggrecan (1:500, ThermoFisher), mouse anti-Collagen II (1:500, ThermoFisher), and mouse anti-Nuclei (1:500, Sigma-Aldrich). The next day, samples were incubated with AlexaFluor 488 secondary antibody, AlexaFluor 555 secondary antibody, Phalloidin AlexaFluor 488, and/or Phalloidin AlexaFluor 633 (1:1000, Invitrogen) for 2-3 h at room temperature. For 2D cell culture, samples were then incubated with DAPI (1:1000, Invitrogen) for 10 minutes at room temperature. If not already on a glass coverslip, samples were mounted with Immu-Mount (Thermo Scientific) and imaged on a Nikon A1R Spectral microscope. Image analysis was performed using ImageJ software.

[2] = system: human chondrocytes encapsulated in PA hydrogels; assay: F-actin ICC and confocal microscopy of chondrocytes encapsulated in PA gels; assay type: cell-based; conditions: three days in vitro
Procedure: as §1
Chondrocytes were trypsinized and resuspended in growth media for counting, and then pelleted and resuspended to 6×10^7 cells/mL in growth media. The cell solution was mixed 1:2 v/v with sterile PA solution prepared at 3 wt % in 30 mM NaCl. For gels also encapsulating rhTGF-β1 protein (R&D Systems), soluble protein was added to PA solutions after thermal annealing. 120 μL of PA/cell solution was mixed thoroughly by pipetting gently and then placed into PDL-coated 12-well chamber slides (Ibidi). Sterile gelling solution, comprised of 110 mM NaCl, 3 mM KCl, and 25 mM CaCl2, was pipetted dropwise on top of the PA/cell solution and the gels were incubated for 30 minutes at 37° C. Following incubation, excess gelling solution was removed and 250 μL of growth media was added to each well. The media was removed after 3 days for LDH viability assays as described above. For ICC, after 3 days of in vitro culture, gels were fixed in 4% paraformaldehyde for 30 minutes at room temperature.

[3] = Transverse-relaxation (T2) NMR spectroscopy of PA assemblies; assay type: physicochemical; conditions: TGF PA co-assembled at 10 mol % with diluent backbone PA
Procedure: NMR spectra were acquired at 600 MHz on a Brucker Neo system with QCI-F cryoprobe. NMR spectra for PAs were recorded at 25° C. using TFA-d, H2O/D2O in 9/1 ratio (D2O contains 0.05 wt. % 3-(trimethylsilyl) propionic-2,2,3,3-d4 acid, sodium salt) as solvents. Chemical shifts are reported in part per million (ppm). The […] was 15 μs and typical spectra required 32 scans.
The spin-spin relaxation rates were measured using the Carr-Purcell-Gill-Meiboom pulse sequence with a delay time of 0.2 ms in a variable loop. The peak intensity data was fit to and exponential in the form:
[formula] where τ is the length of the delay time, R2 is the spin-spin relaxation rate and b are the baseline.^2 Cell Culture

In the case of “TGF PA-a: backbone PA-a (SEQ ID NO: 7) conjugated to cyclic TGF-β1 mimetic peptide (SEQ ID NO: 1) by a linker; co-assembled with diluent Backbone PA-a (chain Palmitoyl-AAEEK-OH; peptide CESPLKRQC; disulfide II:1-II:9; not fully specified (some residues); also: co-assembled with diluent backbone PA-a)”, the aggrecan synthesis ([1]; 10 μM, ICC) is reported as “significantly increased aggrecan synthesis at similar levels”, the “collagen II production compared with native rhTGF-β1” value ([1]; 10 μM, ICC) is reported as “significantly more collagen II production than native rhTGF-β1” and the “chondrocyte phenotype (F-actin staining)” value [1] is reported as “maintained healthy chondrocyte phenotypes and prevented hypertrophy”. For the same substance, the “morphology and distribution of encapsulated cells” value [2] was “compact, elliptical morphologies and were well-dispersed”, the “cells within the bulk of the gel” value ([2]; equal concentrations of cells encapsulated) was “remained inside the gels and survived three days in vitro” and the “relaxation rate for the alkyl tail protons, compared with TGF PA-b assemblies” value [3] was “nearly five times higher”.
